Measured values from the NIST ThermoML archive (doi:10.1021/je200730m).

Details: Liquid, Closed cell (Static) method

CCCCCCCCCCCCCC(=O)OCC [ethyl tetradecanoate]
Details | vapor or sublimation pressure [kPa]
333.22 K | 0.00147
343.19 K | 0.00361
353.15 K | 0.00775
363.09 K | 0.0163
371.72 K | 0.0302
382.03 K | 0.0572
391.87 K | 0.105
401.89 K | 0.187
411.93 K | 0.322
421.97 K | 0.539
432.22 K | 0.887
442.39 K | 1.394
452.25 K | 2.127
462.3 K | 3.2

CCCCCCCC(=O)OCC [ethyl octanoate]
Details | vapor or sublimation pressure [kPa]
273.26 K | 0.00219
283.08 K | 0.00627
293.05 K | 0.0156
303.09 K | 0.035
313.2 K | 0.0757
323.31 K | 0.152
351.9 K | 0.869
362.1 K | 1.487
372.06 K | 2.432
382.13 K | 3.872
392.19 K | 5.904
402.13 K | 8.723
412.13 K | 12.67
422.12 K | 18.04
432.22 K | 25.22
442.26 K | 34.49
452.3 K | 46.42

CCCCCCCCCCCC(=O)OCC [ethyl dodecanoate]
Details | vapor or sublimation pressure [kPa]
313.1 K | 0.00183
351.88 K | 0.0346
362.1 K | 0.0674
372.12 K | 0.124
382.17 K | 0.229
392.24 K | 0.399
402.2 K | 0.669
422.15 K | 1.695
432.26 K | 2.647
442.27 K | 3.986
452.31 K | 5.804
462.43 K | 8.49

CCCCCCCCCC(=O)OCC [ethyl decanoate]
Details | vapor or sublimation pressure [kPa]
303.1 K | 0.00446
313.16 K | 0.0105
333.23 K | 0.0478
343.2 K | 0.0952
353.16 K | 0.181
363.12 K | 0.328
412.15 K | 3.65
422.13 K | 5.472
432.24 K | 8.07
442.23 K | 11.55
452.28 K | 16.28
462.37 K | 22.35

CCCCCC(=O)OCC [ethyl hexanoate]
Details | vapor or sublimation pressure [kPa]
253.41 K | 0.00344
263.26 K | 0.0106
283.06 K | 0.0663
293.05 K | 0.144
303.03 K | 0.291
313.15 K | 0.562
323.18 K | 1.018
333.11 K | 1.781
343.09 K | 2.978
351.97 K | 4.553
362.1 K | 7.184
372.13 K | 10.93
382.15 K | 16.07
392.23 K | 23.19
402.19 K | 32.56
412.21 K | 44.9
422.19 K | 60.62
432.28 K | 80.76
442.29 K | 105.57
452.34 K | 136.73
462.43 K | 174.6
